One assay deals with azeB expression. The experiment in a line: azeB-luxCDABE reporter (dual pyocyanin/azeB-lux assay). Particulars: 50 and 100 μM, azeB-lux reporter strains.
For the next assay, the target named is T1, intracellular PqsE (Pseudomonas aeruginosa, UniProt P20581).
T1 construct: endogenous in cells; host or cells: P. aeruginosa UCBPP-PA14 wild type
Format: cell-based. The conditions noted are these: 8 h growth.

The target in a further assay is T2, PqsE(WT) (Pseudomonas aeruginosa, UniProt P20581).
T2 construct: 6xHis (N); made in house; host or cells: E. coli BL21 (DE3), pET28b-6xHis-pqsE(WT) (strain SM776)
The experiment in a line: biochemical.

A further assay addresses T3, PqsE(S285W) (Pseudomonas aeruginosa, UniProt P20581, S285W).
T3 construct: 6xHis (N); made in house; host or cells: E. coli BL21 (DE3), pET28b-6xHis-pqsE(S285W) (strain IT55)
Put plainly: biochemical.

SMILES strings stand for the structures.

In the case of `CN1CCc2cccc3c2[C@H]1Cc1ccc(O)c(O)c1-3` [Apomorphine], the “Effect on azeB expression (luminescence/OD600)” value (“Effect on azeB expression” below) in the assay on azeB expression is “not accompanied by increases in azeB expression”. For the same molecule, at intracellular PqsE (10 and 100 μM), the “Effect on acetophenone levels” value is given as “no significant effect on acetophenone levels”. For the same molecule, the figures for the IC50 against PqsE(WT) and on PqsE(S285W) were 18 µM and 22 µM, respectively.

For `O=c1n(CCCN2CCN(c3cccc(Cl)c3)CC2)nc2ccccn12` [Trazodone], the “Effect on azeB expression” value in the assay on azeB expression is given as “not accompanied by increases in azeB expression”.

In the case of `O=C(CCCCCCC(=O)Nc1ccccc1)NO` [Vorinostat], the “Effect on azeB expression” value in the assay with azeB expression was “not accompanied by increases in azeB expression”. The Decrease in acetophenone at intracellular PqsE (10 μM, wildtype P. aeruginosa) came to 30%. Also, the “Effect on acetophenone levels at 100 μM” value on intracellular PqsE (100 μM, compared to pqsE(D73A) strain) is given as “full inhibition of PqsE catalytic activity”. In addition, on PqsE(WT), the concentration for half-maximal inhibition (IC50) – broadly, the concentration that gives 50% inhibition – was 1.2 µM.

For the origin of these results see PMC12874371, “Screening of FDA-Approved Small Molecules to Discover Inhibitors of the Pseudomonas aeruginosa Quorum-Sensing Enzyme, PqsE” (Biochemistry, 2026).
